Experimental findings from patent US8933094B2, “Ethynyl compounds useful for treatment of CNS disorder” (Hoffmann-La Roche Inc., priority 2009, dated 2015) are described below.

This test has as its target T1, human mGlu5a receptor (Homo sapiens, UniProt P41594).
T1 construct: expressed in transfected cells
The experiment in a line: Intracellular Ca2+ mobilization assay (mGlu5 PAM). It is filed as cell-based. Particulars: for EC50: HEK-293 cells stably transfected with human mGlu5a, L-glutamate added at EC20 after 10-30 min pre-incubation with test compound, read-out: EC50 (nM) mGlu5PAM; for Emax: maximal response in % of the maximal stimulatory effect obtained with saturating concentrations of L-glutamate, read-out: Eff. (%). The method, then:
A monoclonal HEK-293 cell line stably transfected with a cDNA encoding for the human mGlu5a receptor was generated; for the work with mGlu5 Positive Allosteric Modulators (PAMs), a cell line with low receptor expression levels and low constitutive receptor activity was selected to allow the differentiation of agonistic versus PAM activity. Cells were cultured according to standard protocols (Freshney, 2000) in Dulbecco's Modified Eagle Medium with high glucose supplemented with 1 mM glutamine, 10% (vol/vol) heat-inactivated bovine calf serum, Penicillin/Streptomycin, 50 μg/ml hygromycin and 15 μg/ml blasticidin (all cell culture reagents and antibiotics from Invitrogen, Basel, Switzerland).
About 24 hrs before an experiment, 5×10^4 cells/well were seeded in poly-D-lysine coated, black/clear-bottomed 96-well plates. The cells were loaded with 2.5 μM Fluo-4AM in loading buffer (1×HBSS, 20 mM HEPES) for 1 hr at 37° C. and washed five times with loading buffer. The cells were transferred into a Functional Drug Screening System 7000 (Hamamatsu, Paris, France), and 11 half logarithmic serial dilutions of test compound at 37° C. were added and the cells were incubated for 10-30 min. with on-line recording of fluorescence. Following this pre-incubation step, the agonist L-glutamate was added to the cells at a concentration corresponding to EC20 (typically around 80 μM) with on-line recording of fluorescence; in order to account for day-to-day variations in the responsiveness of cells, the EC20 of glutamate was determined immediately ahead of each experiment by recording of a full dose-response curve of glutamate.
Responses were measured as peak increase in fluorescence minus basal (i.e. fluorescence without addition of L-glutamate), normalized to the maximal stimulatory effect obtained with saturating concentrations of L-glutamate. Graphs were plotted with the % maximal stimulatory using XLfit, a curve fitting program that iteratively plots the data using Levenburg Marquardt algorithm. The single site competition analysis equation used was y=A+((B−A)/(1+((x/C)D))), where y is the % maximal stimulatory effect, A is the minimum y, B is the maximum y, C is the EC50, x is the log 10 of the concentration of the competing compound and D is the slope of the curve (the Hill Coefficient). From these curves the EC50 (concentration at which half maximal stimulation was achieved), the Hill coefficient as well as the maximal response in % of the maximal stimulatory effect obtained with saturating concentrations of L-glutamate were calculated.
A depression of the signal observed after addition of the EC20 concentration of L-glutamate was indicative of an inhibitory activity of the test compound.
A general note: Calcium assays in cells follow changes in intracellular calcium, usually with a dye or a luminescent sensor.

T1 sequence (P41594 21-1180 isoform P41594-2 limits assumed): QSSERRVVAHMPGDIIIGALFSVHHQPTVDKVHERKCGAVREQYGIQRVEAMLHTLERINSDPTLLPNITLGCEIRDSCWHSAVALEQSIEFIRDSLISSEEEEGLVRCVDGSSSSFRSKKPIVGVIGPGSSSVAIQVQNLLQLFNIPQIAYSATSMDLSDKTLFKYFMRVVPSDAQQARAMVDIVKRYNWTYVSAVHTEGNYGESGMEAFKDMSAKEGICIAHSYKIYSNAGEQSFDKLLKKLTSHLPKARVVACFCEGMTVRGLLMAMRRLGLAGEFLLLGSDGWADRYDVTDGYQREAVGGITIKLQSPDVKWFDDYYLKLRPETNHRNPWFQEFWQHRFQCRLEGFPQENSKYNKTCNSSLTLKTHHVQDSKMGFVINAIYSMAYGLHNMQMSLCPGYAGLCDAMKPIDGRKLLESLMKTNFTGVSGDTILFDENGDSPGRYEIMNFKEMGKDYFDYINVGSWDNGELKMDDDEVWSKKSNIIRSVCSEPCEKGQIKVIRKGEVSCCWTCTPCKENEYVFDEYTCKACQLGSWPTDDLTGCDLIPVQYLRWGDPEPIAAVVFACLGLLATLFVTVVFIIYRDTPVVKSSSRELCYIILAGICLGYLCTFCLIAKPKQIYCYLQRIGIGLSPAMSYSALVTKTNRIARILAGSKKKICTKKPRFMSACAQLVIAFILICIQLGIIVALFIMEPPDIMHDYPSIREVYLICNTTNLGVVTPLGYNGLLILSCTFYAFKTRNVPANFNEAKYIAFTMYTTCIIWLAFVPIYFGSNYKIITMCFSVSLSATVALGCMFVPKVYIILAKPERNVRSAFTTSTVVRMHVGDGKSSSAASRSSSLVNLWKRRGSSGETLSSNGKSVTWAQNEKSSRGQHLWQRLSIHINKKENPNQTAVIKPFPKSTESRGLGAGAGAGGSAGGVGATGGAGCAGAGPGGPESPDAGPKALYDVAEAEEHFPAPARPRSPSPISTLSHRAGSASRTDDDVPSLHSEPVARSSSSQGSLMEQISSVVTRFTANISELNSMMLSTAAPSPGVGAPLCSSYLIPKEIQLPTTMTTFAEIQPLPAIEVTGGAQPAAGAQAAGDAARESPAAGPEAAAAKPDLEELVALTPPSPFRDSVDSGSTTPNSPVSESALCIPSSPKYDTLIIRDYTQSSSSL

In the case of `CC(C)(C)c1cc2ncc(C#Cc3ccccc3N)cn2n1` [Example 36, 2-(2-tert-Butyl-pyrazolo[1,5-a]pyrimidin-6-ylethynyl)-phenylamine], the EC50 was 155 nM and the Emax amounted to 88%.

For `CC(C)(C)c1cc2ncc(C#Cc3cc(F)ccc3F)cn2n1` [Example 37, 2-tert-Butyl-6-(2,5-difluoro-phenylethynyl)-pyrazolo[1,5-a]pyrimidine], the EC50 stood at 39 nM and the Emax amounted to 65%.

Consider `CC(C)c1cc2ncc(C#Cc3ccccc3)cn2n1` [Example 38, 2-Isopropyl-6-phenylethynyl-pyrazolo[1,5-a]pyrimidine], for which the EC50 was determined as 18 nM and the Emax worked out at 53%.

For the compound `CC(C)(C)c1nc2ccc(C#Cc3ccccc3)cn2n1` [Example 39, 2-tert-Butyl-6-phenylethynyl-[1,2,4]triazolo[1,5-a]pyridine], the EC50 was 30 nM and the Emax came to 54%.

With `CC(C)(CO)c1nc2ccc(C#Cc3ccccc3)cn2n1` [Example 40, 2-Methyl-2-(6-phenylethynyl-[1,2,4]triazolo[1,5-a]pyridin-2-yl)-propan-1-ol], the EC50 was found to be 66 nM and the Emax came out at 88%.

With `CC(C)(C)c1cc2ccc(C#Cc3ccccc3)cn2n1` [Example 41, 2-tert-Butyl-6-phenylethynyl-pyrazolo[1,5-a]pyridine], the EC50 came out at 32 nM and the Emax came out at 122%.

On to `CC(C)(C)c1nc2ncc(C#Cc3ccccc3)cn2n1` [Example 42, 2-tert-Butyl-6-phenylethynyl-[1,2,4]triazolo[1,5-a]pyrimidine], for which the EC50 came out at 9 nM and the Emax was determined as 73%.

Turning to `CC(C)(C)c1nc2ncc(C#Cc3cc(F)ccc3F)cn2n1` [Example 43, 2-tert-Butyl-6-(2,5-difluoro-phenylethynyl)-[1,2,4]triazolo[1,5-a]pyrimidine], the EC50 was 14 nM and the Emax is 37%.

As to `CC(C)(C)c1nc2ncc(C#Cc3cccc(F)c3)cn2n1` [Example 44, 2-tert-Butyl-6-(3-fluoro-phenylethynyl)-[1,2,4]triazolo[1,5-a]pyrimidine], the EC50 was 9 nM and the Emax was 85%.

As for `CC(C)(C)c1nc2ncc(C#Cc3ccc(F)c(F)c3)cn2n1` [Example 45, 2-tert-Butyl-6-(3,4-difluoro-phenylethynyl)-[1,2,4]triazolo[1,5-a]pyrimidine], the EC50 was 28 nM and the Emax was determined as 54%.

With `CC(C)(C)c1nc2ncc(C#Cc3cncc(Cl)c3)cn2n1` [Example 46, 2-tert-Butyl-6-(5-chloro-pyridin-3-ylethynyl)-[1,2,4]triazolo[1,5-a]pyrimidine], the EC50 turned out to be 47 nM and the Emax was 49%.

In the case of `C(#Cc1cnc2nc(N3CCOCC3)nn2c1)c1ccccc1` [Example 47, 2-Morpholin-4-yl-6-phenylethynyl-[1,2,4]triazolo[1,5-a]pyrimidine], the EC50 is 69 nM and the Emax was 119%.

On to `Cc1cccc(C#Cc2cnc3nc(N4CCOCC4)nn3c2)c1` [Example 48, 2-Morpholin-4-yl-6-m-tolylethynyl-[1,2,4]triazolo[1,5-a]pyrimidine], for which the EC50 was found to be 58 nM and the Emax is 84%.

On to `Fc1cccc(C#Cc2cnc3nc(N4CCOCC4)nn3c2)c1` [Example 49, 6-(3-Fluoro-phenylethynyl)-2-morpholin-4-yl-[1,2,4]triazolo[1,5-a]pyrimidine], for which the EC50 is 50 nM and the Emax worked out at 101%.

On to `Clc1cccc(C#Cc2cnc3nc(N4CCOCC4)nn3c2)c1` [Example 50, 6-(3-Chloro-phenylethynyl)-2-morpholin-4-yl-[1,2,4]triazolo[1,5-a]pyrimidine], for which the EC50 turned out to be 39 nM and the Emax was 88%.

On to `C(#Cc1cnc2nc(N3CCCC3)nn2c1)c1ccccc1` [Example 51, 6-Phenylethynyl-2-pyrrolidin-1-yl-[1,2,4]triazolo[1,5-a]pyrimidine], for which the concentration for a half-maximal effect (EC50) was 56 nM and the Emax was determined as 141%.

One may read the EC50 as the concentration at which the effect is half-maximal.
